Molecular target: Dihydroorotate dehydrogenase (quinone), mitochondrial (Homo sapiens, UniProt Q02127)
Test: Inhibitory activity against human DHODH

Sequence of Dihydroorotate dehydrogenase (quinone), mitochondrial (Q02127 whole entry): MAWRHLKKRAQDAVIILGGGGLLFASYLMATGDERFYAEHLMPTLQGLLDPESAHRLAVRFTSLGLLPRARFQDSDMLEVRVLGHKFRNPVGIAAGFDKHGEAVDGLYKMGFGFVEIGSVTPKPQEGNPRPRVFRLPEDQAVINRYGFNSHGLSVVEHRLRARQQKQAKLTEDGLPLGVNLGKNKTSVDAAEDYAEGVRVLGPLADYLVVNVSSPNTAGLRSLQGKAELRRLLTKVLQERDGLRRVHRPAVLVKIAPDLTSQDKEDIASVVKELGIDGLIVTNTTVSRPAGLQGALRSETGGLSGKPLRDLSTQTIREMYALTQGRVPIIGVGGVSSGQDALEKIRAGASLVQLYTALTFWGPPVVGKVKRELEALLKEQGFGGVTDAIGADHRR

IC50: 2 nM
Structure (SMILES): O=C(Nc1c(F)cc(-c2cccc(OC(F)(F)F)c2)cc1F)c1ccsc1C(=O)O

Source: ChEMBL document CHEMBL1149442, “Dual binding mode of a novel series of DHODH inhibitors” (J Med Chem, 2006)
